Measurements taken from the CheMixHub viscosity set.

Assay: xn = mol fraction of the nth substance listed

CCC[N+](C)(C)C.O=S(=O)([N-]S(=O)(=O)C(F)(F)F)C(F)(F)F + CCC[N+]1(C)CCCCC1.O=S(=O)([N-]S(=O)(=O)C(F)(F)F)C(F)(F)F
101.3 kPa
Settings	viscosity [mPa·s]
298.15 K, x1 = 0.8	88.1
303.15 K, x1 = 0.8	69.7
308.15 K, x1 = 0.2	78.3
308.15 K, x1 = 0.6	63.6
308.15 K, x1 = 0.8	56.2
313.15 K, x1 = 0.2	62.4
313.15 K, x1 = 0.4	56.9
313.15 K, x1 = 0.6	51.5
318.15 K, x1 = 0.2	50.5

ClCCCl + CCCO
101 kPa
Settings	viscosity [mPa·s]
293.15 K, x2 = 0.9052	1.795
298.15 K, x2 = 0.614	1.035
303.15 K, x2 = 0.1182	0.6969
303.15 K, x2 = 0.2163	0.6888
303.15 K, x2 = 0.5579	0.9007
303.15 K, x2 = 0.6721	1.034
303.15 K, x2 = 0.836	1.328
313.15 K, x2 = 0.1182	0.6089
313.15 K, x2 = 0.2163	0.6167
313.15 K, x2 = 0.326	0.6293
313.15 K, x2 = 0.5579	0.7563
313.15 K, x2 = 0.6721	0.8514
313.15 K, x2 = 0.836	1.071
323.15 K, x2 = 0.1182	0.5483
323.15 K, x2 = 0.2163	0.5488
323.15 K, x2 = 0.326	0.5542
323.15 K, x2 = 0.5579	0.6484
323.15 K, x2 = 0.6721	0.721
323.15 K, x2 = 0.836	0.8872

ClCCl + COc1ccccc1
303.15 K, 101.3 kPa
Settings	viscosity [mPa·s]
x2 = 0.069	0.425
x2 = 0.321	0.527
x2 = 0.357	0.54
x2 = 0.4045	0.567
x2 = 0.6109	0.665
x2 = 0.658	0.688
x2 = 0.8807	0.82

ClCCl + CO
303.15 K, 101.3 kPa
Settings	viscosity [mPa·s]
x1 = 0.0146	0.5071
x2 = 0.0752	0.3905
x2 = 0.1326	0.3907
x2 = 0.1509	0.3917
x2 = 0.2315	0.3988
x2 = 0.3029	0.4078
x2 = 0.374	0.42
x2 = 0.407	0.4262
x2 = 0.5161	0.4475
x2 = 0.6525	0.4738
x2 = 0.7656	0.4932
x2 = 0.8581	0.5043
x2 = 0.9182	0.5081
x2 = 0.9595	0.5087
